Test results reported in ChEMBL document CHEMBL5465560, “Selectivity Literature for EUbOPEN Chemogenomic Library” (2024).

Tests used:
[1] = molecular target: Glycogen synthase kinase-3 beta (Homo sapiens, UniProt P49841); experiment: Selectivity interaction (Kinase panel (literature)) EUB0001199aCl GSK3B; conditions: at 1 µM
[2] = molecular target: Serine/threonine-protein kinase MARK2 (Homo sapiens) (UniProt Q7KZI7); experiment: Selectivity interaction (ActivX KiNativ screen (kinase selectivity in THP-1 cell lysates)) EUB0000639a MARK2; assay type: subcellular; conditions: lysate, at 0.2 µM
[3] = molecular target: Polycystin-1 (Homo sapiens) (UniProt P98161); experiment: Selectivity interaction (ActivX KiNativ screen (kinase selectivity in THP-1 cell lysates)) EUB0000639a PKD1; assay type: subcellular; conditions: lysate
Sequence of Polycystin-1 (Homo sapiens) (P98161 24-4303 limits assumed): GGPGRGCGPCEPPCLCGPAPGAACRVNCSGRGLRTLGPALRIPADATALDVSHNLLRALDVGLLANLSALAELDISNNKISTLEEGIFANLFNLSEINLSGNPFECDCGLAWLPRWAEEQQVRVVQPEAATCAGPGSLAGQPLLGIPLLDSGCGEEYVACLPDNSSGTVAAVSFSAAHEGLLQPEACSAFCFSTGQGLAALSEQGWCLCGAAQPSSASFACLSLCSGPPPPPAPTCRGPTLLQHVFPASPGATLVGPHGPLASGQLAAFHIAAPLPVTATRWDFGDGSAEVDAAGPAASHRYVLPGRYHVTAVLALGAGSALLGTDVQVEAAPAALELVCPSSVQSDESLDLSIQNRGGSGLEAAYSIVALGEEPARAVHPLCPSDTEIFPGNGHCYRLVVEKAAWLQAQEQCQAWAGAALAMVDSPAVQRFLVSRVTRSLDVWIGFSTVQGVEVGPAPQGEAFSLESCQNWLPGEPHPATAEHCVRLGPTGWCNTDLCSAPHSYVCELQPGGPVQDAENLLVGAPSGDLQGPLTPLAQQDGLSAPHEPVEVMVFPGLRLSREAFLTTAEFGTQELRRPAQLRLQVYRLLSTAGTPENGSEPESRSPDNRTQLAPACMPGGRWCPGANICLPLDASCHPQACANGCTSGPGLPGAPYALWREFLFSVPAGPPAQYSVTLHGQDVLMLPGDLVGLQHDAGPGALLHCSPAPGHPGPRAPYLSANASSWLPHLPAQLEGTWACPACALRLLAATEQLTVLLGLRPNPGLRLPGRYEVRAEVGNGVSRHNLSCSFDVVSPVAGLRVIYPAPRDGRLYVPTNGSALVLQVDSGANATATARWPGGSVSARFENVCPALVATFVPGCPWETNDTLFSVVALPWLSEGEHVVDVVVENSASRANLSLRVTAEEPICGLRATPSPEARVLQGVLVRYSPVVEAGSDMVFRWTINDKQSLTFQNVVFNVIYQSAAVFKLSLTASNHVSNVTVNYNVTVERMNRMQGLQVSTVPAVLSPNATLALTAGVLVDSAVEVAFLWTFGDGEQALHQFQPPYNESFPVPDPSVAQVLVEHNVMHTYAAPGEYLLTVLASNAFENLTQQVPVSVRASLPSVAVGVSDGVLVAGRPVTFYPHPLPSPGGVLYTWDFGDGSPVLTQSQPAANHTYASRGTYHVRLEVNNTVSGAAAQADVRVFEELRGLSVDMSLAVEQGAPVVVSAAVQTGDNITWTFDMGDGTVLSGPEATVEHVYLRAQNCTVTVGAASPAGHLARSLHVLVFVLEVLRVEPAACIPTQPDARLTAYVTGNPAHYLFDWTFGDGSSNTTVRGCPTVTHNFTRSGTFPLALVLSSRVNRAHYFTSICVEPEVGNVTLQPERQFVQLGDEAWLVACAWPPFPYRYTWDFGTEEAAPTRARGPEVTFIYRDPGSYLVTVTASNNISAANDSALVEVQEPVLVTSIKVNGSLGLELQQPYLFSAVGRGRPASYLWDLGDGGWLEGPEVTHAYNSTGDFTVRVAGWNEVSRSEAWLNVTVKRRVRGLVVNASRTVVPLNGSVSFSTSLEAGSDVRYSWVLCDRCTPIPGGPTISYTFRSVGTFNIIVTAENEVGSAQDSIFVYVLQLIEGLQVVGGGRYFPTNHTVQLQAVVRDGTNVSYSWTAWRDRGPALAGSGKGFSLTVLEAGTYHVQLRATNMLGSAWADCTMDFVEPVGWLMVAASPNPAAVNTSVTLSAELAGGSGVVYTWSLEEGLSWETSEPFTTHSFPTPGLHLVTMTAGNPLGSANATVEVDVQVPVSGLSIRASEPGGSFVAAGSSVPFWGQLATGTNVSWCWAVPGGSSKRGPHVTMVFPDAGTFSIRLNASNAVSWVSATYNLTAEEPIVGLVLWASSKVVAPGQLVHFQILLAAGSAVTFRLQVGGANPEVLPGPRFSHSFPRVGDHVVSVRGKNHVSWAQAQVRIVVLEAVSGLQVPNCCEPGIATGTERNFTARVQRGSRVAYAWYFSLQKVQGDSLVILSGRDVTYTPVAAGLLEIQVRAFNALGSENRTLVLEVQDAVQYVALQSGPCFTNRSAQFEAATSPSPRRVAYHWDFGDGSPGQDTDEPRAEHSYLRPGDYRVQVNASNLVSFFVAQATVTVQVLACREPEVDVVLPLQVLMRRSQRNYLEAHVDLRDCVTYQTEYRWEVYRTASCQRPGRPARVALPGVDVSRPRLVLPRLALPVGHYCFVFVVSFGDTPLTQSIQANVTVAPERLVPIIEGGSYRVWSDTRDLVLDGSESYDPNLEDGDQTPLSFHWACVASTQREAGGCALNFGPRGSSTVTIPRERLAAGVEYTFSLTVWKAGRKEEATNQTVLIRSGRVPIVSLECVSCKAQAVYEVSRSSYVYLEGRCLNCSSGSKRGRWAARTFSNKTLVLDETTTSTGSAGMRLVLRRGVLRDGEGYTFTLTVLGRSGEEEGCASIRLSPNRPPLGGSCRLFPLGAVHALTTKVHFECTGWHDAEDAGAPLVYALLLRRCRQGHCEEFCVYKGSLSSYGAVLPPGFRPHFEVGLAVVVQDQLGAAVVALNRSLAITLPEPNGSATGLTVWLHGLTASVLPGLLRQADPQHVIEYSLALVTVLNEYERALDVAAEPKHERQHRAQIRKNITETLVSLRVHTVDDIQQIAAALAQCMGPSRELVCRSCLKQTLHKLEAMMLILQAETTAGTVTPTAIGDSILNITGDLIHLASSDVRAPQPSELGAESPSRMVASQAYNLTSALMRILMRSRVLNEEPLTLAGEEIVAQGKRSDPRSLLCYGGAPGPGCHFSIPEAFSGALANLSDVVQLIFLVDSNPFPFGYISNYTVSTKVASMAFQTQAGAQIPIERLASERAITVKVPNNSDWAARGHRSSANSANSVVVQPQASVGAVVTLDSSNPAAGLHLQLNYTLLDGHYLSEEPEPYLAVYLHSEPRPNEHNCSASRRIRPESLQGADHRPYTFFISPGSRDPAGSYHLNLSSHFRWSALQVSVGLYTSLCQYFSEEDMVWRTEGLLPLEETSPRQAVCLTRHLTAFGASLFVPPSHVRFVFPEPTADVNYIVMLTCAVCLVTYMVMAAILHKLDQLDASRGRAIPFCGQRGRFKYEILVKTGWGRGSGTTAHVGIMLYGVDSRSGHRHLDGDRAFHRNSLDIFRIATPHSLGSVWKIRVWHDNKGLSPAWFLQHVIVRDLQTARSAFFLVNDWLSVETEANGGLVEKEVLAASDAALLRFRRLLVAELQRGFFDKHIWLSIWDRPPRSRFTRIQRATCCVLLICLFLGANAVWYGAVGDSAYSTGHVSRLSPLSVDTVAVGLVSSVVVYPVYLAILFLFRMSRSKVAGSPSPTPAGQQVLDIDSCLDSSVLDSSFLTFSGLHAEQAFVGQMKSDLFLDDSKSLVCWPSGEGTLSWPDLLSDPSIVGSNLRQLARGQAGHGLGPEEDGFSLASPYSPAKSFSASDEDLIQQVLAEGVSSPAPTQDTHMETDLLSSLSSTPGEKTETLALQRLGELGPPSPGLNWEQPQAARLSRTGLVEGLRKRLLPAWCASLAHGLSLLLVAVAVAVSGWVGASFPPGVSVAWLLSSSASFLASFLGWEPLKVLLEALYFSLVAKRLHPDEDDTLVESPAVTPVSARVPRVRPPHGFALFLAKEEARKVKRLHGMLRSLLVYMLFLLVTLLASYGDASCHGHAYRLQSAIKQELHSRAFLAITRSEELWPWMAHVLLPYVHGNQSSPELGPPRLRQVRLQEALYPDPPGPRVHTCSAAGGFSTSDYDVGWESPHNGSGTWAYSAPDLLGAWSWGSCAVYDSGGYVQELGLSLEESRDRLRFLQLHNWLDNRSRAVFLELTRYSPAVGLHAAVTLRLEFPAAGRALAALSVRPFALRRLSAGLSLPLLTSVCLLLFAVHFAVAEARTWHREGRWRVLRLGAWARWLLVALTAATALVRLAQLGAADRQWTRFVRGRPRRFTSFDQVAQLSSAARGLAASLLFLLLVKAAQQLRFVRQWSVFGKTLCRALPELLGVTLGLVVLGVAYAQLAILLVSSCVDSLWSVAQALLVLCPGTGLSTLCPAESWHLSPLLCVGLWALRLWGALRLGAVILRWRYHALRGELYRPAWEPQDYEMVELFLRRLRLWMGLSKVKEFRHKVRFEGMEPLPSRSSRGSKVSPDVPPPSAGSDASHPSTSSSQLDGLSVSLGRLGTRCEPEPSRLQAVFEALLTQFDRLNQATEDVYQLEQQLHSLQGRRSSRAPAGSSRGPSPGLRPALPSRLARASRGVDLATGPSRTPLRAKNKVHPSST

[4] = molecular target: cGMP-inhibited 3',5'-cyclic phosphodiesterase 3A (Homo sapiens, UniProt Q14432); experiment: Selectivity interaction (Safety Panel 44tm (Eurofins)) EUB0000162b PDE3A; conditions: at 10 µM
[5] = molecular target: T1, Serine/threonine-protein kinase RIO1 (Homo sapiens) (UniProt Q9BRS2); experiment: Selectivity interaction (KinomeScan (DiscoverX)) EUB0000695a RIOK1; conditions: at 100 nM
T1 sequence (whole entry): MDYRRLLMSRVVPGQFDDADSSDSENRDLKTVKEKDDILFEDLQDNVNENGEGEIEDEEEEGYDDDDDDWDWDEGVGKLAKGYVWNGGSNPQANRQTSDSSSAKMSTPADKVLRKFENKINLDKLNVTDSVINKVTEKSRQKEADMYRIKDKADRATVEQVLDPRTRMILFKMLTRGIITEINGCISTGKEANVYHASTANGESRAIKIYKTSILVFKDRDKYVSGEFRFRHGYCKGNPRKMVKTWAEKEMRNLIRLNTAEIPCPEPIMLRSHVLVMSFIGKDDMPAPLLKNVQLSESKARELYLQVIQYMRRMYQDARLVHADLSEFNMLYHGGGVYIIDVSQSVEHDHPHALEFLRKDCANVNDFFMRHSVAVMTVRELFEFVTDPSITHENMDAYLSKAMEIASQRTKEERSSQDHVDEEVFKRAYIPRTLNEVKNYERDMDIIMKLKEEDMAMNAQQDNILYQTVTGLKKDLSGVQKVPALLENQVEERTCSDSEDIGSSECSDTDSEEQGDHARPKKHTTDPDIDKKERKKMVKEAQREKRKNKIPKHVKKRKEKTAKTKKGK

[6] = molecular target: T2, Serine/threonine-protein kinase D2 (Homo sapiens) (UniProt Q9BZL6); experiment: Selectivity interaction (Ambit KINOMEscan and KiNATiv profiling in Jurkat cells) EUB0000090b PRKD2; assay type: cell-based; conditions: at 1 µM
T2 sequence (whole entry): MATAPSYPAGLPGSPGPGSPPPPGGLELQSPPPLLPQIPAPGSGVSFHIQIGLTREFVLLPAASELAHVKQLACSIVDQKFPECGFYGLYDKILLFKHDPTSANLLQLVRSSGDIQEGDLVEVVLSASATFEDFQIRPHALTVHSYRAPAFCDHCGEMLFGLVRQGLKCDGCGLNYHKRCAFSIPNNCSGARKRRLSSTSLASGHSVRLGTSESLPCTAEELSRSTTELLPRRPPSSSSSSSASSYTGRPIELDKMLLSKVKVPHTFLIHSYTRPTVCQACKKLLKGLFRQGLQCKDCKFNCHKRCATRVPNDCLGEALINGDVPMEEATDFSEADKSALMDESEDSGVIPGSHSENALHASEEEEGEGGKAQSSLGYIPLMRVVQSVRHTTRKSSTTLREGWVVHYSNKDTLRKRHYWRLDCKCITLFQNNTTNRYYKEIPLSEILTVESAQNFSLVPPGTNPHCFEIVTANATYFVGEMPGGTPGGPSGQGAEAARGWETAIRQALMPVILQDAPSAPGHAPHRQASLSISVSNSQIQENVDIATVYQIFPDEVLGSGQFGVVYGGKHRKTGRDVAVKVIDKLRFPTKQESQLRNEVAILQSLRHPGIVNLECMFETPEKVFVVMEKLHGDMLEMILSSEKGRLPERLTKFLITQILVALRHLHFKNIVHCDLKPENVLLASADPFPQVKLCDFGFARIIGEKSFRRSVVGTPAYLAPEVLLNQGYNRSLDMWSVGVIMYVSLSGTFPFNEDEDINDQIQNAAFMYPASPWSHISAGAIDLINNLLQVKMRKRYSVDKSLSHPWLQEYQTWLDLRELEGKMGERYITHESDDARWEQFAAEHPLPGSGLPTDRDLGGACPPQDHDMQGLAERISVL

[7] = molecular target: T3, Serine/threonine-protein kinase TAO1 (Homo sapiens) (UniProt Q7L7X3); experiment: Selectivity interaction (KinomeScan (DiscoverX)) EUB0001079a TAOK1; conditions: at 1 µM
T3 sequence (whole entry): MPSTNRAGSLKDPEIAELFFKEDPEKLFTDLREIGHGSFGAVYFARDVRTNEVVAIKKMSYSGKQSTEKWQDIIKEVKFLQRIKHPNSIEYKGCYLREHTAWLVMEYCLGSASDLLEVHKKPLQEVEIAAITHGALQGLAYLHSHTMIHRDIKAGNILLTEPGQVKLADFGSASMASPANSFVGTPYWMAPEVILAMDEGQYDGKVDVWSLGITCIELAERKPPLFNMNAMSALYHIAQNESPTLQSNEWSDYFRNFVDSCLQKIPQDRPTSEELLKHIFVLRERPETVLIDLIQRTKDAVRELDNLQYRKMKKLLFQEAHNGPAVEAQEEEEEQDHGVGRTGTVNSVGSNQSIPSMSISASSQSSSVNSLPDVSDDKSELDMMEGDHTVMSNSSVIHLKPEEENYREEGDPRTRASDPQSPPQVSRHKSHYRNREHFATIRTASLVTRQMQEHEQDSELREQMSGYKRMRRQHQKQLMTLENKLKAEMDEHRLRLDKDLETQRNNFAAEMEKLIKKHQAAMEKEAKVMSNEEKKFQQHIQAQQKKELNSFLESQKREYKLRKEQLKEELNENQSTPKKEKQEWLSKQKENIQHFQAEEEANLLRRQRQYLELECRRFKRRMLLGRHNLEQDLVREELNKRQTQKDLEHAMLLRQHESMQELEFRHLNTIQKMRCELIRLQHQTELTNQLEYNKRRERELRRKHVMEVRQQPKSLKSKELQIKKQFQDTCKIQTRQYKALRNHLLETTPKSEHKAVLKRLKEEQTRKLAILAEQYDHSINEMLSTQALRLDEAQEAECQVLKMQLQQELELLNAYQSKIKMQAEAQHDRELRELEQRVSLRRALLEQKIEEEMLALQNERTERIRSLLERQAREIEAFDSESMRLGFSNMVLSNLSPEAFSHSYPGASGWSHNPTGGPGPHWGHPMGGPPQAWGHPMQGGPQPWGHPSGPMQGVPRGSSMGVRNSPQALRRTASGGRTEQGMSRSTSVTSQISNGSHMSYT

[8] = molecular target: Mitogen-activated protein kinase kinase kinase 11 (Homo sapiens) (UniProt Q16584); experiment: Selectivity interaction (KinomeScan (DiscoverX)) EUB0000618a MAP3K11; conditions: at 10 µM
Sequence of Mitogen-activated protein kinase kinase kinase 11 (Homo sapiens) (Q16584 whole entry, looked up): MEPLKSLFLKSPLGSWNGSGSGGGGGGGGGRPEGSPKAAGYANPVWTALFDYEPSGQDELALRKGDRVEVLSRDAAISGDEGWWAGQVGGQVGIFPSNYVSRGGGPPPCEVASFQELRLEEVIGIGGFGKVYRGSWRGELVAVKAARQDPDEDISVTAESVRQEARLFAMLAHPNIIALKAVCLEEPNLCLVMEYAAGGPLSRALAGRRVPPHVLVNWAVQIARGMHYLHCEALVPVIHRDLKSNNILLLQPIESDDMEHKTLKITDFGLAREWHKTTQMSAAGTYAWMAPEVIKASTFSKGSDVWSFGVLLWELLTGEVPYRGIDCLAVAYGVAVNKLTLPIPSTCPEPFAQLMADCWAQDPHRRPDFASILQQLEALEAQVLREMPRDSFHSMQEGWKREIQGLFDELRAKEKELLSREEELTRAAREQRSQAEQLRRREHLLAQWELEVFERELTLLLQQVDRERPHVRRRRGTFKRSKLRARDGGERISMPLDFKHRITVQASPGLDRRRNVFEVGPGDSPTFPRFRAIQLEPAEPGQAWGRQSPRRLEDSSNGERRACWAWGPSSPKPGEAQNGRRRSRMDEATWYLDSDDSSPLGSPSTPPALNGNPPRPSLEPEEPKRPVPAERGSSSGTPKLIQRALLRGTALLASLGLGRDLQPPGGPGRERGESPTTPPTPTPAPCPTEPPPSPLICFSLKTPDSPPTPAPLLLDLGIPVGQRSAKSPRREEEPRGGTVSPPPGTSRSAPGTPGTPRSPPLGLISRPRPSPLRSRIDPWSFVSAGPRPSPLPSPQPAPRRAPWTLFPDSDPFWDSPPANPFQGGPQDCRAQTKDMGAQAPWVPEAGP

For CN1Cc2nccc(-c3cn(C)nc3-c3ccc(F)cc3)c2C1=O, the % of inhibition [1] was 1%.

Compound CC[C@@H]1[C@H](F)C(=O)N[C@@H]1COc1nccc2cc(C(N)=O)c(OC)cc12 [ZIMLOVISERTIB] has a % of inhibition [2] of 2.7%, a % of inhibition ([3]; at 0.01 µM) of -7.2% and a % of inhibition ([3]; at 0.04 µM) of -3.5%. It also gave a % of inhibition ([3]; at 0.2 µM) of -8.9%, a % of inhibition ([3]; at 1 µM) of 8% and a % of inhibition ([3]; at 5 µM) of 8.9%.

CN(C)C(=O)Cn1cc(-c2ccc(-c3cncc4ccccc34)cc2)cn1 showed a % of control [4] of 82%.

Cc1cc(F)c(C(=O)Nc2cccc(-c3nncn3C(C)C)n2)cc1-n1cnc(C2CC2)c1 gave a % of control [5] of 100%.

CN(C)C/C=C/C(=O)Nc1ccc(C(=O)N2CCCC(Nc3ncc(Cl)c(-c4c[nH]c5ccccc45)n3)C2)cc1 (configuration not stated) showed a % of control [6] of 55%.

Nc1cnc(N2CCc3cc(S(=O)(=O)Nc4c(F)cc(Cl)cc4F)cc(N4CCCC4=O)c32)nc1 [TP-020n] was tested, and the % of control [7] was 80%.

Work on O[C@H]1CC[C@H](Nc2ncc3nc(Nc4c(F)cc(F)cc4F)n([C@H]4CCOC4)c3n2)CC1 yielded a % of control [8] of 100%.
